Assay results from patent publication US20240299486A1, “ADDRESSING INJECTION SITE REACTIONS ASSOCIATED WITH THE ADMINISTRATION OF ELAMIPRETIDE” (STEALTH BIOTHERAPEUTICS INC., priority 2022, published 2024).
Entries after “also recorded” stand apart in the source; their conditions may differ.

Columns and labels:
[1] = biological target: T1, MRGPRX2 receptor (Homo sapiens, UniProt Q96LB1); assay: Fluo-4 calcium assay in MRGPRX2 expressing Chem-1 cells; assay type: cell-based; conditions: Chem-1 cells, Fluo-4
T1 construct: host or cells: Chem-1 cells (G418-selected)
T1 sequence (Q96LB1 1-330): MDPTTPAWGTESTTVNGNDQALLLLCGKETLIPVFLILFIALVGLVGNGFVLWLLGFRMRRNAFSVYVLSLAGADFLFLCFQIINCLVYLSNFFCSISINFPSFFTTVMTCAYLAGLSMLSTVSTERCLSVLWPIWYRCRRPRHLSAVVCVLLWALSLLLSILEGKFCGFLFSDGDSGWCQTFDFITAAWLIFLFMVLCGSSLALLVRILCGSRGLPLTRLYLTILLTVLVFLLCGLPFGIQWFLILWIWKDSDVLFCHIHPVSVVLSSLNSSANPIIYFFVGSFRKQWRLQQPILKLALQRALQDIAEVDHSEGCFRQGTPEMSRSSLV

[2] = test system: control (non-MRGPRX2 expressing) Chem-1 cells; conditions: parent Chem-1 cells, Fluo-4
Description: MRGPRX2 expressing and control (non-MRGPRX2 expressing) Chem-1 cells lines were obtained from Discovery Services, EuroFins. Cells were cultured in Dulbecco's Modified Eagle Medium (DMEM) high glucose medium (4.5 g/L) with 10% fetal bovine serum (FBS), non-essential amino acids, and N-2-hydroxyethylpiperazine-N′-2-ethanesulfonic acid (HEPES) buffer (pH 7.0-7.6). Geneticin (G418) was used for selection of MRGPRX2-expressing Chem-1 cells. Cells were maintained at 37° C. at 5% CO2. Cells were seeded to a glass bottom 96-well plates at a density of 50,000 per well (Cellvis). Cells were loaded with Fluo-4 AM for 30 minutes at 37° C. at a concentration of 2.5 μM. Cells were washed once with Dulbecco's phosphate buffered saline (DPBS). Cells were rested at room temperature for 30 minutes before use and washed with DPBS. Cells were resuspended in 50 μl phosphate buffered saline (PBS) with calcium and magnesium. […] Plates were read immediately with a Biotek plate reader. Readings were taken every 6 seconds for 2 minutes.

[3] = test system: healthy subjects; assay: Phase 1 crossover study: self-assessed injection site reactions; assay type: in vivo, human; conditions: 60 mg SQ elamipretide with or without the intervention, across all timepoints, all participants, n = 80
Description: (§1) • This Phase 1, open-label, 6-arm crossover study included 10 healthy subjects ≥18 and ≤65 years of age. • All subjects received 60 mg of SQ elamipretide to alternating quadrants of the abdomen on each of 6 occasions (FIG. 3), with or without the interventions listed in Table 2. • For each treatment arm, ISR clinical and self-assessments were performed pre-elamipretide administration and at 0.5, 1, 2, 4, 6, 12, 24, and 48 hours after each elamipretide dose. • Blood samples for plasma concentrations of elamipretide and its metabolites were also collected pre-dose and at 0.25, 0.5, 1, 2, 4, and 6 hours post-elamipretide dose. • Primary endpoints consisted of comparisons of the grading from the clinical assessments and the self-assessments of each ISR parameter following administration of elamipretide with each separate intervention versus that of elamipretide alone. • Secondary endpoints consisted of comparison of various pharmacokinetic (PK) parameters and adverse events following administration of elamipretide with each separate intervention versus that of elamipretide alone.
(§2) After the screening period (up to 28 days) in this phase 1, open-label, 4-week, 6-part, crossover study, all eligible subjects received 60 mg (0.75 mL) of SC elamipretide to alternating quadrants of the abdomen on each of 6 occasions, with or without potential ISR interventions. The first treatment arm (Arm 1) commenced on Day 1 with administration of elamipretide only, followed by the remaining treatment arms (Arms 2-6) with the following potential mitigations: mometasone furoate, 0.1% ointment, applied once under a hydrocolloid occlusive dressing (DuoDERM Extra Thin) 7 days prior to elamipretide administration (Arm 2); ice application at the elamipretide injection site 5 minutes pre- and post-drug administration (Arm 3); tacrolimus 0.1% ointment applied 15 minutes pre-drug dosing (Arm 4); doxepin 5% cream applied 15 minutes pre-elamipretide administration (Arm 5); and diphenhydramine 50 mg orally taken 2 hours prior to administration (Arm 6). For each treatment arm, blood samples for plasma concentrations of elamipretide and its metabolites were collected pre-dose and at 0.25, 0.5, 1, 2, 4, and 6 hours post-elamipretide dose. Vital signs were recorded pre-dose and at 0.5 and 6 hours post-elamipretide administration. ISR clinical and self-assessments were performed pre-elamipretide administration and at 0.5, 1, 2, 4, 6, 12, 24, and 48 hours after each elamipretide dose. Injection sites were photographed at 0.5, 1, 2, 4, and 12 hours post-elamipretide dose.
(§3) The primary endpoints of this study were comprised of the following efficacy measures: clinical assessments and subject self-assessments. Specifically, the primary endpoints consisted of comparisons of the grading of each ISR parameter following administration of elamipretide with each separate intervention versus the grading of each ISR parameter following administration of elamipretide alone. For clinical assessments, the clinical staff used a standard procedure adapted from the Division of Aids Table for Grading the Severity of Adult and Pediatric Adverse Events to score pain, erythema, induration, and pruritus using a 4-point scale based on severity (0=None, 1=Mild, 2=Moderate, 3=Severe, 4=Potentially Life Threatening). The self-assessments were based on a questionnaire to determine how bothered the patient was following each injection of elamipretide and included the following parameters: pain, burning sensation, cold sensation, itching, redness, swelling, and bruising.
(§4) All statistical analyses were performed using SAS GRID Linux/SAS Studio (Version 9.4, or higher). PK parameters for elamipretide and its metabolites, M1 and M2, were summarized using descriptive statistics.

[4] = test system: healthy subjects; assay: Phase 1 crossover study: clinically assessed injection site reactions
Description: as §1, §2, §3, §4

[5] = test system: healthy subjects; assay: Phase 1 crossover study: safety (TEAEs, vital signs, ECG); assay type: in vivo, human; conditions: Arm 6, 50 mg orally 2 hours prior to 60 mg SQ elamipretide, 10 subjects
Description: The secondary endpoints of this study consisted of PK and safety assessments. After measuring absorption and distribution PK of elamipretide and its metabolites (M1 and M2), comparisons of each Tmax, Cmax, and AUC0-6 following administration of elamipretide with each separate intervention versus Tmax, Cmax, and AUC0-6 following administration of elamipretide alone were performed. Safety assessments consisted of comparison of treatment emergent adverse events (TEAEs) reported following administration of elamipretide with each separate intervention versus TEAEs reported following administration of elamipretide alone. Safety measurements included TEAEs, clinical laboratory tests (e.g., serum chemistry and hematology), 12-lead ECGs, physical exams, and vital signs.

[6] = 60 mg SQ elamipretide with or without the intervention, across all timepoints, all participants, n = 80
[7] = clinical assessment, vs elamipretide alone

## C[C@H](CCC(=O)O)C[C@H](C)C[C@H](C)C(=O)/C=C(\O)[C@H](C)C[C@H](C)C/C=C/[C@@H](C)[C@@H](O)[C@@H](C)[C@@H](O)C[C@@H]1CC[C@@](C)([C@H]2CC[C@@](C)([C@@H](C)O)O2)O1 [Ionomycin]
[1]
  activation of the MRGPRX2 expressing cells (calcium mobilization): generates a calcium response
[2]
  effect on cells lacking the MRGPRX2 receptor (calcium mobilization): generates a calcium response

## CN(C)CCOC(c1ccccc1)c1ccccc1 [Diphenhydramine]
[3]
  Self-assessed Bruising, (%) of Reported Reactions: (1.3) %
  Self-assessed Bruising, Number of Reported Reactions: 1
  Self-assessed Burning sensation, (%) of Reported Reactions: (1.3) %
  Self-assessed Burning sensation, Number of Reported Reactions: 1
  Self-assessed Cold Sensation, Number of Reported Reactions: 0.0
  Self-assessed Itching, (%) of Reported Reactions: (11.3) %
  Self-assessed Itching, Number of Reported Reactions: 9
  Self-assessed Pain, (%) of Reported Reactions: (2.5) %
  Self-assessed Pain, Number of Reported Reactions: 2
  Self-assessed Redness, (%) of Reported Reactions: (25.0) %
  Self-assessed Redness, Number of Reported Reactions: 20
  Self-assessed Swelling, (%) of Reported Reactions: (6.3) %
  Self-assessed Swelling, Number of Reported Reactions: 5
[4]; [6]
  Clinically assessed Erythema or redness, (%) of Reported Reactions: (26.3) %
  Clinically assessed Erythema or redness, Number of Reported Reactions: 21
  Clinically assessed Induration or swelling, (%) of Reported Reactions: (6.3) %
  Clinically assessed Induration or swelling, Number of Reported Reactions: 5
  Clinically assessed Pain or tenderness, (%) of Reported Reactions: (2.5) %
  Clinically assessed Pain or tenderness, Number of Reported Reactions: 2
  Clinically assessed Pruritis, (%) of Reported Reactions: (10.0) %
  Clinically assessed Pruritis, Number of Reported Reactions: 8
[4]; clinical and self-assessments, 60 mg SQ elamipretide, vs Arm 1 (no intervention)
  Overall effect of the intervention on ISRs compared to elamipretide alone: most reduced; also recorded: potential in reducing induration; also recorded: Improvement
[4]; [7]
  incidence of induration at 0.5 hours post-elamipretide dose: trend to significance in reduction
  incidence of induration at 1 hour post-elamipretide dose: significantly decreased incidence
[5]
  mild somnolence, incidence: 50%
  mild somnolence, number of subjects: 5 subjects
